Laboratory results taken from patent US10471059B2, “Compositions and methods of using tyrosine kinase inhibitors” (YALE UNIVERSITY, priority 2015, dated 2019).
Entries after “also recorded” stand apart in the source; their conditions may differ. Like-named read-outs stand apart in the source and are kept apart here. Marks after values point to notes of the source that are not given here.

Columns and labels:
[1] = test system: WT and Ptpn11^D61G/+ mice; conditions: for % EF (ejection fraction) / % FS (fractional shortening) / IVS, d (Intraventricular septum wall thickness, diastole) / IVS, s (Intraventricular septum wall thickness, systole) / LV vol, d (left ventricle volume, diastole) / LV vol, s (left ventricle volume, systole) / LVID, d (left ventricular internal dimension, diastole) / LVID, s (left ventricular internal dimension, systole) / LVPW, d (left ventricular posterior wall thickness, diastole) / LVPW, s (left ventricular posterior wall thickness, systole): n = 8, Mean ± SEM;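 as to all read-outs here: echocardiography in isoflurane-anesthetized mice, M-mode tracings averaged over three to six heartbeats, FS derived from diastolic and systolic LVID, vehicle-injected mice as control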
Method: Echocardiographic Studies—Cardiac dimensions and function were analyzed by echocardiography using a Vevo 770 console, Mice were lightly anesthetized with inhaled isoflurane (0.2% in O2). All measurements were obtained from three to six consecutive cardiac cycles, and the averaged values used for analysis. Interventricular septum wall (IVS), left ventricular internal dimension (LVID) and left ventricular posterior wall thickness (LVPW) in both end-diastolic (d), end-systolic (s) were measured from the and M-mode tracings. Diastolic measurements were performed using the leading-edge method of the American Society of Echocardiography. For TM-mode measurements, left ventricular end-diastolic volume (LV vol,d) and end-systolic volume (LV vol,s) were calculated. Ejection fraction percentage (EF) was calculated as [(LVvol,d−LVvol,s)/VLvol,d]×100, and fractional shortening percentage was calculated as [(LVID,d−LVID,s)/LVID,d]×100.
Animal Handling—Ptpn11^D61G/+ mice were provided from Dr. Benjamin Neel (University of Toronto, Toronto) and were genotyped as described previously^9. Briefly, Ptpn11^D61G/+ male mice were crossed with wild type C75BL/6×SV 129 female mice and their offspring were genotyped by PCR and digestion with AgeI for the D61G allele. Dasatinib (Biovision) was suspended in vehicle (1% DMSO in phosphate buffer saline), For prenatal treatment, dasatinib was injected i.p. (0.1 mg/kg body weight) into pregnant mice daily, beginning on gestational day 7.5 (E7.5) continuing (in nursing females) until postnatal day 9. Vehicle-injected mice served as control. Beginning at P10, dasatinib or vehicle alone was injected (i.p.) directly into pups daily, until 8-weeks after birth. For postnatal treatment, dasatinib was injected (i.p.) into pups at P10, until 6-weeks after birth; injection was discontinued for 2-weeks.
Echocardiography—Mice were anesthetized in a sealed plastic chamber with 1% isofurane in oxygen until immobile, and then were transferred onto a heated procedure board (37° C.). Animal were kept anesthetized with 1% isoflurane supplied by a nose cone connected to the isoflurane vaporizer during the entire procedure. The scan head was placed on the chest of the mouse and stable image signals (both B mode and M mode) were acquired and data analyzed with Vevo 770 (VisualSonics). Systolic and distolic left ventricle peripheral wall thickness, chamber diameter and interventricular wall thickness were measured with M mode image. Percentage of ejection fraction (EF) and fractional shortening (FS) were calculated.

[2] = test system: WT and Ptpn11^D61G/+ mice; test: Echocardiography, postnatal dasatinib treatment; format: in vivo; conditions: for % EF (ejection fraction) / % FS (fractional shortening) / IVS, d (Intraventricular septum wall thickness, diastole) / IVS, s (Intraventricular septum wall thickness, systole) / LV vol, d (left ventricle volume, diastole) / LV vol, s (left ventricle volume, systole) / LVID, d (left ventricular internal dimension, diastole) / LVID, s (left ventricular internal dimension, systole) / LVPW, d (left ventricular posterior wall thickness, diastole) / LVPW, s (left ventricular posterior wall thickness, systole): n = 6, Mean ± SEM
Method: Dasatinib Treatment—N-(2-chloro-6-methylphenyl)-2-[[6-[4-(2-hydroxyethyl)-1-piperazinyl]-2-methyl-4-pyrimidinyl]amino]-5-thiazole carboxamide monohydrate (dasatinib, BMS-354825) was purchased from Biovision. dasatinib was dissolved in DMSO at a concentration of 10 mg/ml, then resuspended in vehicle (1× Dulbecco's PBS) at a concentration of 200 μg/ml. […] And then, injection was continued or discontinued for 2 weeks, Vehicle-injected mice served as control, Body weight was measured weekly and echocardiography was performed at P42 (6-weeks) and P56 (8-weeks).
(§1) Vehicle-injected mice served as control.

[3] = test system: WT and Ptpn11^D61G/+ mice; test: Invasive hemodynamic study, postnatal dasatinib treatment; format: in vivo
Method: as §1
Hemodynamic Study—Anesthesia was induced by intraperitoneal injection of ketamine (100 mg/kg) and xylazine (5 mg/kg). The animal was placed on a warm pad and an incision was made on the neck. The right side carotid artery was exposed and a 1.9-French transducer-tipped catheter (Millar Inc., Houston, Tex.) was inserted into the artery, and then was advanced into left ventricle. Left ventricular pressures including high-fidelity positive, negative dp/dt and heart rate were measured under basal conditions. Data were recorded and analyzed by using LabChart software.

[4] = prenatal 0.1 mg/kg i.p. daily from E7.5, Ptpn11D61G/+ mice, P42
[5] = prenatal 0.1 mg/kg i.p. daily from E7.5, WT mice, P42
[6] = prenatal 0.1 mg/kg i.p. daily from E7.5 continued to P56, Ptpn11D61G/+ mice, P56
[7] = prenatal 0.1 mg/kg i.p. daily from E7.5 continued to P56, WT mice, P56
[8] = postnatal 0.1 mg/kg/day i.p. P10 to P42, then discontinued 2 weeks, Ptpn11D61G/+ mice, P56
[9] = postnatal 0.1 mg/kg/day i.p. P10 to P42, then discontinued 2 weeks, WT mice, P56
[10] = postnatal 0.1 mg/kg/day i.p. from P10, Ptpn11D61G/+ mice, P42
[11] = postnatal 0.1 mg/kg/day i.p. from P10, WT mice, P42
[12] = Ptpn11D61G/+ mice, P56, n = 9, Mean ± SEM
[13] = WT mice, P56, n = 8, Mean ± SEM

Cc1nc(Nc2ncc(C(=O)Nc3c(C)cccc3Cl)s2)cc(N2CCN(CCO)CC2)n1.O [Dasatinib, N-(2-chloro-6-methylphenyl)-2-[[6-[4-(2-hydroxyethyl)-1-piperazinyl]-2-methyl-4-pyrimidinyl]amino]-5-thiazole carboxamide monohydrate]
% EF (ejection fraction) [1, 4]: 62.62 ± 2.75 % | % FS (fractional shortening) [1, 4]: 34.29 ± 2.09 % | IVS, d (Intraventricular septum wall thickness, diastole) [1, 4]: 0.65 ± 0.06 mm | IVS, s (Intraventricular septum wall thickness, systole) [1, 4]: 0.97 ± 0.10 mm | LV vol, d (left ventricle volume, diastole) [1, 4]: 60.93 ± 3.75 mm^3 | LV vol, s (left ventricle volume, systole) [1, 4]: 24.21 ± 1.56 mm^3 | LVID, d (left ventricular internal dimension, diastole) [1, 4]: 3.61 ± 0.12 mm | LVID, s (left ventricular internal dimension, systole) [1, 4]: 2.32 ± 0.12 mm | LVPW, d (left ventricular posterior wall thickness, diastole) [1, 4]: 0.70 ± 0.04 mm | LVPW, s (left ventricular posterior wall thickness, systole) [1, 4]: 1.12 ± 0.07 mm | % EF (ejection fraction) [1, 5]: 64.24 ± 2.52% | % FS (fractional shortening) [1, 5]: 34.70 ± 1.82% | IVS, d (Intraventricular septum wall thickness, diastole) [1, 5]: 0.67 ± 0.04 mm | IVS, s (Intraventricular septum wall thickness, systole) [1, 5]: 1.08 ± 0.09 mm | LV vol, d (left ventricle volume, diastole) [1, 5]: 67.51 ± 2.54 mm^3 | LV vol, s (left ventricle volume, systole) [1, 5]: 22.26 ± 1.95 mm^3 | LVID, d (left ventricular internal dimension, diastole) [1, 5]: 3.93 ± 0.08 mm | LVID, s (left ventricular internal dimension, systole) [1, 5]: 2.49 ± 0.09 mm | LVPW, d (left ventricular posterior wall thickness, diastole) [1, 5]: 0.76 ± 0.05 mm | LVPW, s (left ventricular posterior wall thickness, systole) [1, 5]: 1.13 ± 0.04 mm | % EF (ejection fraction) [1, 6]: 51.83 ± 1.60% | % FS (fractional shortening) [1, 6]: 26.22 ± 1.01% | IVS, d (Intraventricular septum wall thickness, diastole) [1, 6]: 0.70 ± 0.03 mm | IVS, s (Intraventricular septum wall thickness, systole) [1, 6]: 1.02 ± 0.05 mm | LV vol, d (left ventricle volume, diastole) [1, 6]: 73.00 ± 3.42 mm^3 | LV vol, s (left ventricle volume, systole) [1, 6]: 37.43 ± 2.08 mm^3 | LVID, d (left ventricular internal dimension, diastole) [1, 6]: 4.06 ± 0.11 mm | LVID, s (left ventricular internal dimension, systole) [1, 6]: 3.08 ± 0.07 mm | LVPW, d (left ventricular posterior wall thickness, diastole) [1, 6]: 0.68 ± 0.02 mm | LVPW, s (left ventricular posterior wall thickness, systole) [1, 6]: 0.93 ± 0.06 mm | % EF (ejection fraction) [1, 7]: 50.96 ± 2.38 % | % FS (fractional shortening) [1, 7]: 25.84 ± 1.47 % | IVS, d (Intraventricular septum wall thickness, diastole) [1, 7]: 0.69 ± 0.04 mm | IVS, s (Intraventricular septum wall thickness, systole) [1, 7]: 1.07 ± 0.05 mm | LV vol, d (left ventricle volume, diastole) [1, 7]: 79.32 ± 1.22 mm^3 | LV vol, s (left ventricle volume, systole) [1, 7]: 40.34 ± 1.60*** mm^3 | LVID, d (left ventricular internal dimension, diastole) [1, 7]: 4.21 ± 0.07 mm | LVID, s (left ventricular internal dimension, systole) [1, 7]: 3.04 ± 0.10 mm | LVPW, d (left ventricular posterior wall thickness, diastole) [1, 7]: 0.71 ± 0.04 mm | LVPW, s (left ventricular posterior wall thickness, systole) [1, 7]: 0.95 ± 0.05 mm | cardiac function (EF and FS) ([1]; prenatal 0.1 mg/kg, NS mice, P42, monohydrate): improves cardiac function; also recorded: completely restored to wild type parameters; also recorded: complete restoration of cardiac function | cardiac failure on continued administration ([1]; prenatal regimen continued an additional 2 weeks to P56, wild type and NS mice): induced cardiac failure | fold lower than therapeutic dose ([2]; 0.1 mg/kg versus therapeutic dose): about 200 fold | dose sufficient to treat CHD-associated cardiac disease ([2]; mice): 0.1 mg/kg | cardiac function after cessation of treatment ([2]; postnatal 0.1 mg/kg/day P10 to P42, discontinued 2 weeks, NS mice, P56, monohydrate): preserved improvement of cardiac function; also recorded: continued preservation of cardiac function | cardiac function (EF and FS) ([2]; postnatal 0.1 mg/kg/day from P10, NS mice, P42, monohydrate): improves cardiac function; also recorded: complete corrective functionality; also recorded: completely restored cardiac functionality | % EF (ejection fraction) [2, 8]: 64.71 ± 1.67 % | % FS (fractional shortening) [2, 8]: 34.92 ± 1.23 % | IVS, d (Intraventricular septum wall thickness, diastole) [2, 8]: 0.72 ± 0.04 mm | IVS, s (Intraventricular septum wall thickness, systole) [2, 8]: 1.18 ± 0.05 mm | LV vol, d (left ventricle volume, diastole) [2, 8]: 65.60 ± 2.44 mm^3 | LV vol, s (left ventricle volume, systole) [2, 8]: 24.85 ± 1.68^† mm^3 | LVID, d (left ventricular internal dimension, diastole) [2, 8]: 3.93 ± 0.08 mm | LVID, s (left ventricular internal dimension, systole) [2, 8]: 2.60 ± 0.07 mm | LVPW, d (left ventricular posterior wall thickness, diastole) [2, 8]: 0.65 ± 0.03 mm | LVPW, s (left ventricular posterior wall thickness, systole) [2, 8]: 1.19 ± 0.05 mm | % EF (ejection fraction) [2, 9]: 65.89 ± 1.74% | % FS (fractional shortening) [2, 9]: 36.63 ± 1.20% | IVS, d (Intraventricular septum wall thickness, diastole) [2, 9]: 0.69 ± 0.03 mm | IVS, s (Intraventricular septum wall thickness, systole) [2, 9]: 1.19 ± 0.06 mm | LV vol, d (left ventricle volume, diastole) [2, 9]: 64.06 ± 2.65 mm^3 | LV vol, s (left ventricle volume, systole) [2, 9]: 23.06 ± 2.21 mm^3 | LVID, d (left ventricular internal dimension, diastole) [2, 9]: 3.92 ± 0.09 mm | LVID, s (left ventricular internal dimension, systole) [2, 9]: 2.52 ± 0.10 mm | LVPW, d (left ventricular posterior wall thickness, diastole) [2, 9]: 0.80 ± 0.06 mm | LVPW, s (left ventricular posterior wall thickness, systole) [2, 9]: 1.18 ± 0.05 mm | % EF (ejection fraction) [2, 10]: 60.93 ± 2.06 % | % FS (fractional shortening) [2, 10]: 33.08 ± 1.33 % | IVS, d (Intraventricular septum wall thickness, diastole) [2, 10]: 0.66 ± 0.05 mm | IVS, s (Intraventricular septum wall thickness, systole) [2, 10]: 1.04 ± 0.07 mm | LV vol, d (left ventricle volume, diastole) [2, 10]: 57.35 ± 2.19 mm^3 | LV vol, s (left ventricle volume, systole) [2, 10]: 24.67 ± 1.18 mm^3 | LVID, d (left ventricular internal dimension, diastole) [2, 10]: 3.63 ± 0.07 mm | LVID, s (left ventricular internal dimension, systole) [2, 10]: 2.50 ± 0.08 mm | LVPW, d (left ventricular posterior wall thickness, diastole) [2, 10]: 0.71 ± 0.03 mm | LVPW, s (left ventricular posterior wall thickness, systole) [2, 10]: 1.09 ± 0.06 mm | % EF (ejection fraction) [2, 11]: 65.70 ± 0.82% | % FS (fractional shortening) [2, 11]: 35.52 ± 0.69% | IVS, d (Intraventricular septum wall thickness, diastole) [2, 11]: 0.71 ± 0.05 mm | IVS, s (Intraventricular septum wall thickness, systole) [2, 11]: 1.13 ± 0.06 mm | LV vol, d (left ventricle volume, diastole) [2, 11]: 65.87 ± 2.78 mm^3 | LV vol, s (left ventricle volume, systole) [2, 11]: 22.24 ± 0.63 mm^3 | LVID, d (left ventricular internal dimension, diastole) [2, 11]: 3.80 ± 0.11 mm | LVID, s (left ventricular internal dimension, systole) [2, 11]: 2.45 ± 0.05 mm | LVPW, d (left ventricular posterior wall thickness, diastole) [2, 11]: 0.81 ± 0.04 mm | LVPW, s (left ventricular posterior wall thickness, systole) [2, 11]: 1.25 ± 0.07 mm | aortic blood pressure and left ventricular pressure ([3]; NS mice, P56): significantly restored | +dp/dt [3, 12]: 7718 ± 498 mmHg/s | Diastolic pressure [3, 12]: 84.0 ± 3.5 mmHg | End diastolic pressure [3, 12]: 11.1 ± 0.7 mmHg | Left ventricle pressure [3, 12]: 127.9 ± 4.5 mmHg | Mean arterial pressure [3, 12]: 96.8 ± 4.2 mmHg | Pulse pressure [3, 12]: 63.7 ± 4.4 mmHg | Systolic pressure [3, 12]: 129.3 ± 6.2 mmHg | −dp/dt [3, 12]: −6189 ± 626 mmHg/s | +dp/dt [3, 13]: 8626 ± 476 mmHg/s | Diastolic pressure [3, 13]: 95.1 ± 4.2 mmHg | End diastolic pressure [3, 13]: 8.7 ± 1.3 mmHg | Left ventricle pressure [3, 13]: 136.5 ± 2.5 mmHg | Mean arterial pressure [3, 13]: 112.1 ± 4.0 mmHg | Pulse pressure [3, 13]: 65.2 ± 4.6 mmHg | Systolic pressure [3, 13]: 146.2 ± 5.1 mmHg | −dp/dt [3, 13]: −6529 ± 847 mmHg/s
